Data published in US11312758B2, “Peptides with vasodilatory and/or diuretic functions” (National University of Singapore, priority 2016, dated 2022).
Where “and” joins values, the source holds several entries; their conditions need not be identical. Equal values may be shown once.

System: anesthetized male SD rats
Assay: In-vivo activity assay: peptide infusion in anesthetized rats (MAP, HR, PP, urine flow)
Parameters: species or system rat
Experimental: Male Sprague-Dawley (SD) rats (220-280 g) were obtained from Invivos, Singapore. Animals were acclimatized in the Animal Holding unit, NUS for 3 days before the experiment. The experiments were conducted under the guidance and approval of Institutional Animal Care and Use Committee, NUS (041/12).
The experiments were performed as described in Sridharan et al., [Biochem J 469 (2): 255-66 (2015)]. In brief, animals were anesthetized with sodium pentobarbital (60-70 mg/kg) and catheters were inserted in femoral artery, vein and urinary bladder. The body temperature of the animals was maintained using a thermostatic heat pad at 37° C. Continuous infusions (2 ml/h) of 0.2% BSA saline (with or without peptide) was administered through the femoral vein while a pressure transducer attached to the femoral artery recorded on-line changes in mean arterial pressure (MAP), heart rate (HR) and pulse pressure (PP). Urine was collected and the volume was measured after every 10 min. Experiments encompassed control (2×10 min), experimental (1×10 min) and recovery (4×10 min) periods. All animals were euthanized at the end of the experiment in carbon-di-oxide chambers.

## CC[C@H](C)[C@@H]1NC(=O)[C@H](CCCNC(=N)N)NC(=O)[C@H](CC(=O)O)NC(=O)[C@H](CCSC)NC(=O)[C@H](CCCNC(=N)N)NC(=O)CNC(=O)CNC(=O)[C@H](Cc2ccccc2)NC(=O)[C@@H](NC(=O)[C@H](CO)NC(=O)[C@H](CO)NC(=O)[C@H](CCCNC(=N)N)NC(=O)[C@H](CCCNC(=N)N)NC(=O)[C@H](CC(C)C)NC(=O)[C@@H](N)CO)CSSC[C@@H](C(=O)N[C@@H](CC(N)=O)C(=O)N[C@@H](CO)C(=O)N[C@@H](Cc2ccccc2)C(=O)N[C@@H](CCCNC(=N)N)C(=O)N[C@@H](Cc2ccc(O)cc2)C(=O)O)NC(=O)CNC(=O)[C@H](CC(C)C)NC(=O)CNC(=O)[C@H](CO)NC(=O)[C@H](CCC(N)=O)NC(=O)[C@H](C)NC(=O)CNC1=O [ANP, reference compound]
0.08 nmol/kg/min infusion
  Heart rate Peak response: −7.8 ± 2.4 BPM
  Pulse pressure Peak response: −2.1 ± 1.5 mmHg
  Urine flow rate Peak Time: 20 min
  Urine flow rate Peak response: 5.4 ± 1.4 µL/min
0.08 nmol/kg/min infusion, anesthetized rats
  Mean arterial pressure Peak response: −1.6 ± 1.5 mmHg
0.2 nmol/kg/min infusion
  HR Rate of change per unit change in MAP: 5.6
  Heart rate Peak time: 30 min
  Mean arterial pressure Peak response: −10.1±0.8 mmHg and −10.1 ± 1.9 mmHg
  Mean arterial pressure Peak time: 30 min
  PP Rate of change per unit change in MAP: 0.5
  Pulse pressure Peak response: −7.7±3.9 mmHg and −7.7±1.8 mmHg
  Pulse pressure Peak time: 40 min
  Urine flow rate Peak Time: 20 min
  Urine flow rate Peak response: 8.8 ± 1.3 µL/min
